This is an account of results in US5571832A (priority 1994, dated 1996).

The term Ki denotes the equilibrium dissociation constant of an inhibitor or competing ligand from its target. A high value points to lower affinity.

Test [1] concerns NMDA receptor. As to conditions: Carter et al 1988; cited from earlier work.
For test [2], the system named is sigma receptor. As to conditions: cited from earlier work.
The target in test [3] is sigma receptor (Cavia porcellus, UniProt Q60492). Briefly: biochemical.
sigma receptor (Cavia porcellus, UniProt Q60492), sequence (Q60492 whole entry): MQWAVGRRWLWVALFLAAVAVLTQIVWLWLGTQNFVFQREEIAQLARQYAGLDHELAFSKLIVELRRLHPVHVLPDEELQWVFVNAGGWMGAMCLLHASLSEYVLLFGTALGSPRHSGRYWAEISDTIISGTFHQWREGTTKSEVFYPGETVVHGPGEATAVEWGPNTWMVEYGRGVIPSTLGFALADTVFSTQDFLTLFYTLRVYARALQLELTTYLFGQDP

On to “1-(4-chlorophenyl)-2-[1-(4-fluorophenyl)piperidinyl]ethanol”, for which the NMDA receptor antagonism result in test [1] was “non-competitive NMDA receptor antagonists”.

In the case of `CN(CCc1ccc(Cl)c(Cl)c1)[C@@H]1CCCC[C@@H]1N1CCCC1` (single isomer, unassigned) [cis-N-[3,4-dichlorophenylethyl]-N-methyl-2-(1-pyrrolidinyl)cyclohexylamine], in test [2], the “sigma ligand potency and selectivity” value was “extremely potent and selective ligands for the sigma receptor”.

Take `CN(CCc1ccc(Cl)c(Cl)c1)CC1CCCCN1C` (stereo not drawn) [Compound 2, 2-[N-[2-(3,4-Dichlorophenyl)ethyl]-N-(methyl)aminomethyl]-1-(methyl)piperidine]: the Ki in test [3] was 3.69 ± 0.85 nM.

In test [3], `CCN1CCCC1CNCCc1ccc(Cl)c(Cl)c1` (stereo not drawn) [Compound 3, 2-[N-(3,4-dichlorophenylethyl)aminomethyl]-1-(ethyl)pyrrolidine] had a Ki of 16 ± 3.62 nM.

For `CCN1CCCC1CN(C)CCc1ccc(Cl)c(Cl)c1` (stereo not drawn) [Compound 4, 2-[N-(3,4-Dichlorophenylethyl)-N-(methyl)aminomethyl]-1-(ethyl)pyrrolidine], the Ki in test [3] is 1.48 ± 0.37 nM.

As for `CC(C(O)c1ccc(O)cc1)N1CCC(Cc2ccccc2)CC1` (stereo not drawn) [ifenprodil], the NMDA receptor antagonism result in test [1] is recorded as “non-competitive NMDA receptor antagonists”.
